Measured values published in patent US8569308B2, “Substituted heteroarylamine carboxamide analogs as mGluR5 negative allosteric modulators and methods of making and using the same” (Vanderbilt University, priority 2009, dated 2013).

Target: rat mGluR5 (Rattus norvegicus, UniProt P31424)
Assay: cell-based
Description: The cells were loaded with a Ca2+-sensitive fluorescent dye (e.g., Fluo-4), and the plates were washed and placed in the FDSS instrument. Test compound was applied to cells 3 seconds after baseline readings were taken. Cells were incubated with the test compounds for 140 seconds and then stimulated with an EC20 concentration of an mGluR5 agonist (e.g., glutamate, 3,5-dihydroxyphenylglycine, or quisqualate); 60-80 seconds later an EC80 concentration of agonist was added and readings taken for an additional 40 seconds. Data were collected at 1 Hz. […] Concentration response curves were generated using a four parameter logistical equation.
The above described assay was operated in two modes. In the first mode (utilizing a triple add protocol), a range of concentrations of the present compounds were added to cells, followed by two single fixed concentrations of agonist (EC20 followed by EC80). If a compound acted as a potentiator, an EC50 value for potentiation of the EC20 response and a maximum extent of potentiation by the compound at this concentration of agonist was determined by non-linear curve fitting. If a compound acted as an antagonist, an IC50 value for antagonism of the EC80 response and a maximum extent of antagonism by the compound at this concentration of agonist was determined by non-linear curve fitting. In the second mode (utilizing a double add protocol), several fixed concentrations of the present compounds were added to various wells on a plate, followed by a range of concentrations of agonist for each concentration of present compound; the EC50 values for the agonist at each concentration of compound were determined by nonlinear curve fitting. A decrease in the EC50 value of the agonist with increasing concentrations of the present compounds (a leftward shift of the agonist concentration-response curve) is an indication of the degree of mGluR5 positive allosteric modulation at a given concentration of the present compound. An increase in the EC50 value of the agonist with increasing concentrations of the present compounds (a rightward shift of the agonist concentration response curve) is an indication of the degree of mGluR5 antagonism at a given concentration of the present compound. The second mode also indicates whether the present compounds also affect the maximum response to mGluR5 to agonists.
The mGluR5 activity was determined using the metabotropic glutamate receptor activity assays in human embryonic kidney cells as described herein, wherein the human embryonic kidney cells were transfected with rat mGluR5. The mGluR5 activity data for some compounds are shown as the average of at least three experiments with the standard error in these cases. If no error is indicated for the mGluR5 activity, the values given represent the results from a single experiment or the average of two experiments.

Sequence of rat mGluR5 (P31424 21-1203): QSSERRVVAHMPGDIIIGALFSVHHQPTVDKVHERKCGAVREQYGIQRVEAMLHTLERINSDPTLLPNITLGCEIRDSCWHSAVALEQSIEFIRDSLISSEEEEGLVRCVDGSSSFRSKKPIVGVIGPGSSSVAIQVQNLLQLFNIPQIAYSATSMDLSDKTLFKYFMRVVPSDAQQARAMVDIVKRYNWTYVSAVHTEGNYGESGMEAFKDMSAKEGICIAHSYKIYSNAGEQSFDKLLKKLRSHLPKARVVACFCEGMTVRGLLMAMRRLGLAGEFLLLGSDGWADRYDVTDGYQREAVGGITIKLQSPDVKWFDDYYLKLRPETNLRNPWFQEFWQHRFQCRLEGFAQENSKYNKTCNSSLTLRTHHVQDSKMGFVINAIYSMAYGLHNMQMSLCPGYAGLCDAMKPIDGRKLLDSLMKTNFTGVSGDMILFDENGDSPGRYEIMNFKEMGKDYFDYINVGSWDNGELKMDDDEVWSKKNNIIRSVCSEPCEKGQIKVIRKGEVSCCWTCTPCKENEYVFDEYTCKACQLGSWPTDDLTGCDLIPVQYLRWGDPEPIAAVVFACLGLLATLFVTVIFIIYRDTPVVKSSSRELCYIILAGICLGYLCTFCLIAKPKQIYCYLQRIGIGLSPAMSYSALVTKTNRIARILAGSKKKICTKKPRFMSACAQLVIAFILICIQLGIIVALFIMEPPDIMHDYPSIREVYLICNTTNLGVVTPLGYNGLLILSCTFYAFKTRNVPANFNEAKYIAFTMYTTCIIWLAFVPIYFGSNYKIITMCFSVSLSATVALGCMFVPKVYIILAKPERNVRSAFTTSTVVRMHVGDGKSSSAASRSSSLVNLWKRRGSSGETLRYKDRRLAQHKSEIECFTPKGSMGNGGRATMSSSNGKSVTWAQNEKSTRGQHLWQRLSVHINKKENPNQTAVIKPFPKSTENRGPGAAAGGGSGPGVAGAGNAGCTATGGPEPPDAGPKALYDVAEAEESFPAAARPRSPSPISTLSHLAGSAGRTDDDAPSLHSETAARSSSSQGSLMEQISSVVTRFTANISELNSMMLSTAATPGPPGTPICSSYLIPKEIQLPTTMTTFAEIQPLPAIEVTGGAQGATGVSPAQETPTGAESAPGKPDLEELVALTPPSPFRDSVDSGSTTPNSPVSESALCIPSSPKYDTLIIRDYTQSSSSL

O=C(Nc1ccnc(Oc2cccnc2)c1)c1cccc(Cl)c1 showed an IC50 of 1120 nM.

O=C(Nc1cncc(Oc2cccnc2)n1)c1cccc(Cl)c1 gave an IC50 of 100 ± 12 nM.

With Cc1cccc(C(=O)Nc2cncc(Oc3cccnc3)n2)c1 the IC50 was 166 nM.

Work on N#Cc1cccc(C(=O)Nc2cncc(Oc3cccnc3)n2)c1 yielded an IC50 of 460 nM.

For Cc1cccc(C(=O)Nc2cncc(Oc3cccnc3)n2)n1, the IC50 was > 30000 nM.

In the case of Cc1ccc(Oc2cncc(NC(=O)c3cccc(Cl)c3)n2)cn1, the IC50 is reported as > 10000 nM.

Cc1cccc(C(=O)Nc2cncc(Oc3ccc(C)nc3)n2)c1 was tested, and the IC50 was > 10000 nM.

In the case of Cc1ccc(Oc2cncc(NC(=O)c3cccc(C)n3)n2)cn1, the IC50 is reported as > 30000 nM.

With Cc1cccc(C(=O)Nc2cccc(Oc3cncnc3)n2)c1 the IC50 was 87 nM.

For N#Cc1cccc(C(=O)Nc2cccc(Oc3cncnc3)n2)c1, the IC50 was 271 nM.

With Cc1cccc(C(=O)Nc2cccc(Oc3cncnc3)n2)n1 the IC50 was > 30000 nM.

Cc1cccc(C(=O)Nc2cncc(Oc3ccc(C(F)(F)F)nc3)n2)c1 was tested, and the IC50 was > 10000 nM.

In the case of Cc1cccc(C(=O)Nc2cncc(Oc3ccc(C(F)(F)F)nc3)n2)n1, the IC50 is reported as > 30000 nM.

In the case of N#Cc1cccc(C(=O)Nc2cccc(Oc3cccnc3)n2)c1, the IC50 is reported as 266 nM.

Cc1cccc(C(=O)Nc2cccc(Oc3ccc(C(F)(F)F)nc3)n2)c1 was tested, and the IC50 was > 30000 nM.

N#Cc1cccc(C(=O)Nc2cccc(Oc3ccc(C(F)(F)F)nc3)n2)c1 was tested, and the IC50 was > 30000 nM.

In the case of Cc1cccc(C(=O)Nc2cccc(Oc3ccc(C(F)(F)F)nc3)n2)n1, the IC50 is reported as > 30000 nM.

In the case of O=C(Nc1ccnc(Oc2cccnc2)c1)c1cccc(Br)c1, the IC50 is reported as > 10000 nM.

N#Cc1cccc(C(=O)Nc2cncc(Oc3cccnc3)c2)c1 showed an IC50 of 500 nM.

With O=C(Nc1cncc(Oc2cncnc2)c1)c1cccc(F)n1 the IC50 was > 30000 nM.

In the case of O=C(Nc1cncc(Oc2cncnc2)c1)c1cccc(F)c1, the IC50 is reported as > 10000 nM.

Molecule O=C(Nc1cncc(Oc2cncnc2)c1)c1cc(Cl)ccc1F has an IC50 of 927 nM.

O=C(Nc1cncc(Oc2cncnc2)c1)c1cccc(C(F)(F)F)n1 was tested, and the IC50 was > 30000 nM.

In the case of N#Cc1cncc(C(=O)Nc2cncc(Oc3cncnc3)c2)c1, the IC50 is reported as > 10000 nM.

With O=C(Nc1cncc(Oc2cncnc2)c1)c1cscn1 the IC50 was > 10000 nM.

With N#Cc1csc(C(=O)Nc2cncc(Oc3cncnc3)c2)c1 the IC50 was > 10000 nM.

Work on CN(c1cncnc1)c1ccnc(NC(=O)c2cccc(C#N)c2)c1 yielded an IC50 of 2260 nM.

CN(c1cccnc1)c1ccnc(NC(=O)c2cccc(Br)c2)c1 showed an IC50 of 123 nM.

With CN(c1cncnc1)c1ccnc(NC(=O)c2cccc(Br)c2)c1 the IC50 was 162 nM.

Molecule CCN(c1cncnc1)c1cncc(NC(=O)c2cccc(C#N)c2)c1 has an IC50 of 1790 nM.
